Biological target: T1, Porcine dipeptidyl peptidase IV (Sus scrofa, UniProt P22411)
T1 construct: purchased Sigma D-7052
Assay: Inhibition of dipeptidyl peptidase IV (DPP-IV) activity, Ala-Pro-AFC fluorimetric assay
Type: biochemical
Conditions: for IC50: 8 point concentration curves in duplicate, Ala-Pro-AFC 20 μM, Tris-HCl pH 8.0, 37° C.; for inhibition at 0.1 µM: test compound at 100 nM, read-out: Percent Inhibition of DPP-IV at 100 nM; for inhibition at 0.1 µM / inhibition at 1 µM: in duplicate; for inhibition at 1 µM: test compound at 1 uM, read-out: Percent Inhibition of DPP-IV at 1 uM
Experimental: Porcine dipeptidyl peptidase IV (Sigma, D-7052) is used. Test compound and/or vehicle is pre-incubated with enzyme (70 μU ? /ml) in Tris-HCl pH 8.0 for 15 minutes at 37° C. Ala-Pro-AFC (20 μM) is then added for a further 30 minutes incubation period. The concentration of proteolytic product, AFC, is then read spectrofluorimetrically. 8 point concentration curves in duplicate are used to calculate IC50 values, or percent inhibition is measured in duplicate at two dose levels.

T1 sequence (P22411 whole entry): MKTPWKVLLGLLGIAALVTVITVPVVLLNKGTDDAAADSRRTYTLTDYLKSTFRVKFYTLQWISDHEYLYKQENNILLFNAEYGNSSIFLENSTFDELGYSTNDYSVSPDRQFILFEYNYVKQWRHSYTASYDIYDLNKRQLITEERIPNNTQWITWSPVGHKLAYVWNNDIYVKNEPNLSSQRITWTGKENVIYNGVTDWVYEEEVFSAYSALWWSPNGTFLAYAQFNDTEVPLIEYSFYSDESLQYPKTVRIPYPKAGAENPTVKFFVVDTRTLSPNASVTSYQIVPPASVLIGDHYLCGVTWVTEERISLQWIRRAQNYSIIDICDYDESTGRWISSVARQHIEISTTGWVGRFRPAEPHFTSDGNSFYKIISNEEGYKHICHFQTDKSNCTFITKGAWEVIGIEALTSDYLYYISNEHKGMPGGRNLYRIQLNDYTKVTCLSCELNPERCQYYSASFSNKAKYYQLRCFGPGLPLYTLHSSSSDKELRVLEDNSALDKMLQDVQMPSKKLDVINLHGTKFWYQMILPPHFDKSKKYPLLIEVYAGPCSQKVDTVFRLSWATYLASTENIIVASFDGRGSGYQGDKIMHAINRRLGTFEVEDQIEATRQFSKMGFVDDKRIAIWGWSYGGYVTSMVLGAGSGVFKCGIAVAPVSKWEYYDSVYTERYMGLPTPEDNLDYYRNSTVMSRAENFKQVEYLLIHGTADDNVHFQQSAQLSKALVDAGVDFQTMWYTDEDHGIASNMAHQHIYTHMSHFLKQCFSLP

| SMILES | IC50 [nM] | inhibition at 0.1 µM [%] | inhibition at 1 µM [%] |
| --- | --- | --- | --- |
| CN(C)S(=O)(=O)NC12CC3CC(CC(NCC(=O)N4CCC[C@H]4C#N)(C3)C1)C2 [Example 6, N′-(3-(2-((S)-2-cyanopyrrolidin-1-yl)-2-oxoethylamino)-adamantyl)-N,N-dimethyl-sulfamide] | 61 |  |  |
| N#Cc1ccc(NC23CC4CC(CC(NCC(=O)N5CCC[C@H]5C#N)(C4)C2)C3)nc1 [Example 5, 6-(3-(2-((S)-2-cyanopyrrolidin-1-yl)-2-oxoethylamino)-adamantylamino)nicotinonitrile] |  | 96 | 99 |
| CS(=O)(=O)NC12CC3CC(CC(NCC(=O)N4CCC[C@H]4C#N)(C3)C1)C2 [Example 1, (S)-1-[(3-methanesulfonamido-1-adamantyl)amino]acetyl-2-cyano-pyrrolidine] | 59 |  |  |
| N#C[C@@H]1CCCN1C(=O)CNC12CC3CC(C1)CC(NC(=O)NS(=O)(=O)c1ccc(F)cc1)(C3)C2 [Example 7, 1-(3-(2-((S)-2-cyanopyrrolidin-1-yl)-2-oxoethylamino)-adamantyl)-3-(4-fluorophenylsulfonyl)urea] | 70 |  |  |
| N#C[C@@H]1CCCN1C(=O)CNC12CC3CC(C1)CC(NS(=O)(=O)CC(F)(F)F)(C3)C2 [Example 3, (S)-1-[(3-(2,2,2-trifluoro)-ethanesulfonamido-1-adamantyl)amino]acetyl-2-cyano-pyrrolidine] |  | 68 | 94 |
| CCS(=O)(=O)NC12CC3CC(CC(NCC(=O)N4CCC[C@H]4C#N)(C3)C1)C2 [Example 2, (S)-1-[(3-ethanesulfonamido-1-adamantyl)amino]acetyl-2-cyano-pyrrolidine] |  | 60 | 92 |
| N#C[C@@H]1CCCN1C(=O)CNC12CC3CC(C1)CC(NS(=O)(=O)c1ccc(F)cc1)(C3)C2 [Example 4, (S)-1-[(3-(4-fluorophenyl)sulfonamido-1-adamantyl)amino]acetyl-2-cyano-pyrrolidine] | 46 |  |  |

Source: patent publication US7842707B2, “Peptidase inhibitors” (Nuada, LLC, priority 2004, dated 2010)
